From PubChem BioAssay AID1919016 (Molecular Pharmacology Branch, DTP, NCI, 2023)

Tested on: NCI-H196 complex spheroid growth, percent test/control
Test: Anticancer human tumor NCI-H196 cell line growth inhibition [AhR];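 note: seven days of drug exposure starting three days after plating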;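 for viability, T/C: 100% = DMSO vehicle control wells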
Conditions: for IC50: curve of first compound; for viability, T/C: stronger effect = lower value
Summary of the method: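 Agents were dosed in half-log steps down from roughly clinical Cmax, or from 10 microM where Cmax was unknown, alone and with AhR antagonists. Read-out: percent test/control growth of tumor spheroids containing HUVEC and MSC stromal cells.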

[1] = second compound 0.1 µM, first compound 0.0316 µM
[2] = second compound 0.1 µM, first compound 0.1 µM
[3] = second compound 0.1 µM, first compound 0.316 µM
[4] = second compound 0.1 µM, first compound 1 µM
[5] = second compound 0.1 µM, first compound 3.16 µM
[6] = second compound 0.1 µM, first compound 10 µM
[7] = second compound 0.316 µM, first compound 0.0316 µM
[8] = second compound 0.316 µM, first compound 0.1 µM
[9] = second compound 0.316 µM, first compound 0.316 µM
[10] = second compound 0.316 µM, first compound 1 µM
[11] = second compound 0.316 µM, first compound 3.16 µM
[12] = second compound 0.316 µM, first compound 10 µM
[13] = second compound 1 µM, first compound 0.0316 µM
[14] = second compound 1 µM, first compound 0.1 µM
[15] = second compound 1 µM, first compound 0.316 µM
[16] = second compound 1 µM, first compound 1 µM
[17] = second compound 1 µM, first compound 3.16 µM
[18] = second compound 1 µM, first compound 10 µM
[19] = second compound 3.16 µM, first compound 0.0316 µM
[20] = second compound 3.16 µM, first compound 0.1 µM
[21] = second compound 3.16 µM, first compound 0.316 µM
[22] = second compound 3.16 µM, first compound 1 µM
[23] = second compound 3.16 µM, first compound 3.16 µM
[24] = second compound 3.16 µM, first compound 10 µM
[25] = second compound 10 µM, first compound 0.0316 µM
[26] = second compound 10 µM, first compound 0.1 µM
[27] = second compound 10 µM, first compound 0.316 µM
[28] = second compound 10 µM, first compound 1 µM
[29] = second compound 10 µM, first compound 3.16 µM
[30] = second compound 10 µM, first compound 10 µM

For CC1(C)CCC(CN2CCN(c3ccc(C(=O)NS(=O)(=O)c4ccc(NCC5CCOCC5)c([N+](=O)[O-])c4)c(Oc4cnc5[nH]ccc5c4)c3)CC2)=C(c2ccc(Cl)cc2)C1 + Cc1ccccc1N=Nc1ccc(NC(=O)c2ccnn2C)c(C)c1, the IC50 (second compound 0.1 µM) was > 10 µM, the IC50 (second compound 0.316 µM) was > 10 µM and the IC50 (second compound 1 µM) was > 10 µM. The IC50 (second compound 3.16 µM) was > 10 µM, the IC50 (second compound 10 µM) was > 10 µM and the viability, T/C [1] was 111%. For the same molecule, the viability, T/C [2] was 109%, the viability, T/C [3] was 109% and the viability, T/C [4] was 97%. It also gave a viability, T/C [5] of 115%, a viability, T/C [6] of 66% and a viability, T/C [7] of 101%. The viability, T/C [8] was 106%, the viability, T/C [9] was 99.9% and the viability, T/C [10] was 102%. It also gave a viability, T/C [11] of 108%, a viability, T/C [12] of 74.9% and a viability, T/C [13] of 100%. For the same molecule, the viability, T/C [14] was 107%, the viability, T/C [15] was 108% and the viability, T/C [16] was 102%. The viability, T/C [17] was 102%, the viability, T/C [18] was 75.5% and the viability, T/C [19] was 104%. The viability, T/C [20] was 111%, the viability, T/C [21] was 107% and the viability, T/C [22] was 104%. The viability, T/C [23] was 104%, the viability, T/C [24] was 67.2% and the viability, T/C [25] was 95.6%. The viability, T/C [26] was 99.2%, the viability, T/C [27] was 100% and the viability, T/C [28] was 99.8%. The viability, T/C [29] was 100% and the viability, T/C [30] was 74.6%.
In the case of CCN(c1cc(-c2ccc(CN3CCOCC3)cc2)cc(C(=O)NCc2c(C)cc(C)[nH]c2=O)c1C)C1CCOCC1 + Cc1ccccc1N=Nc1ccc(NC(=O)c2ccnn2C)c(C)c1, the IC50 (second compound 0.1 µM) is reported as > 3 µM, the IC50 (second compound 0.316 µM) is reported as > 3 µM and the IC50 (second compound 1 µM) is reported as > 3 µM. For the same molecule, the IC50 (second compound 3.16 µM) was > 3 µM, the IC50 (second compound 10 µM) was > 3 µM and the viability, T/C (second compound 0.1 µM, first compound 0.00949 µM) was 95%. The viability, T/C (second compound 0.1 µM, first compound 0.03 µM) was 104%, the viability, T/C (second compound 0.1 µM, first compound 0.0949 µM) was 103% and the viability, T/C (second compound 0.1 µM, first compound 0.3 µM) was 104%. The viability, T/C (second compound 0.1 µM, first compound 0.949 µM) was 90.2%, the viability, T/C (second compound 0.1 µM, first compound 3 µM) was 89.6% and the viability, T/C (second compound 0.316 µM, first compound 0.00949 µM) was 104%. For the same molecule, the viability, T/C (second compound 0.316 µM, first compound 0.03 µM) was 99.2%, the viability, T/C (second compound 0.316 µM, first compound 0.0949 µM) was 102% and the viability, T/C (second compound 0.316 µM, first compound 0.3 µM) was 97.3%. For the same molecule, the viability, T/C (second compound 0.316 µM, first compound 0.949 µM) was 94.7%, the viability, T/C (second compound 0.316 µM, first compound 3 µM) was 96.3% and the viability, T/C (second compound 1 µM, first compound 0.00949 µM) was 98.6%. The viability, T/C (second compound 1 µM, first compound 0.03 µM) was 98.1%, the viability, T/C (second compound 1 µM, first compound 0.0949 µM) was 111% and the viability, T/C (second compound 1 µM, first compound 0.3 µM) was 103%. The viability, T/C (second compound 1 µM, first compound 0.949 µM) was 101%, the viability, T/C (second compound 1 µM, first compound 3 µM) was 107% and the viability, T/C (second compound 3.16 µM, first compound 0.00949 µM) was 93%. It also gave a viability, T/C (second compound 3.16 µM, first compound 0.03 µM) of 103%, a viability, T/C (second compound 3.16 µM, first compound 0.0949 µM) of 105% and a viability, T/C (second compound 3.16 µM, first compound 0.3 µM) of 98.1%. For the same molecule, the viability, T/C (second compound 3.16 µM, first compound 0.949 µM) was 93.2%, the viability, T/C (second compound 3.16 µM, first compound 3 µM) was 96.3% and the viability, T/C (second compound 10 µM, first compound 0.00949 µM) was 89.9%. It also gave a viability, T/C (second compound 10 µM, first compound 0.03 µM) of 97.8%, a viability, T/C (second compound 10 µM, first compound 0.0949 µM) of 92.9% and a viability, T/C (second compound 10 µM, first compound 0.3 µM) of 89.7%. It also gave a viability, T/C (second compound 10 µM, first compound 0.949 µM) of 90.1% and a viability, T/C (second compound 10 µM, first compound 3 µM) of 102%.
In the case of COc1cc(Nc2ncc3c(n2)-c2ccc(Cl)cc2C(c2c(F)cccc2OC)=NC3)ccc1C(=O)O + Cc1ccccc1N=Nc1ccc(NC(=O)c2ccnn2C)c(C)c1, the IC50 (second compound 0.1 µM) is reported as > 10 µM, the IC50 (second compound 0.316 µM) is reported as > 10 µM and the IC50 (second compound 1 µM) is reported as > 10 µM. The IC50 (second compound 3.16 µM) was > 10 µM, the IC50 (second compound 10 µM) was > 10 µM and the viability, T/C [1] was 83.2%. It also gave a viability, T/C [2] of 94.4%, a viability, T/C [3] of 108% and a viability, T/C [4] of 107%. It also gave a viability, T/C [5] of 123%, a viability, T/C [6] of 116% and a viability, T/C [7] of 83.3%. The viability, T/C [8] was 89.3%, the viability, T/C [9] was 106% and the viability, T/C [10] was 118%. For the same molecule, the viability, T/C [11] was 119%, the viability, T/C [12] was 115% and the viability, T/C [13] was 85.5%. For the same molecule, the viability, T/C [14] was 88.9%, the viability, T/C [15] was 95.9% and the viability, T/C [16] was 94.2%. The viability, T/C [17] was 111%, the viability, T/C [18] was 104% and the viability, T/C [19] was 85.4%. It also gave a viability, T/C [20] of 86%, a viability, T/C [21] of 102% and a viability, T/C [22] of 97.5%. The viability, T/C [23] was 109%, the viability, T/C [24] was 117% and the viability, T/C [25] was 89.8%. It also gave a viability, T/C [26] of 88.4%, a viability, T/C [27] of 96.3% and a viability, T/C [28] of 91.1%. For the same molecule, the viability, T/C [29] was 108% and the viability, T/C [30] was 104%.
In the case of Cn1ncnc1C1c2n[nH]c(=O)c3cc(F)cc(c23)NC1c1ccc(F)cc1 (stereo not given) + Cc1ccccc1N=Nc1ccc(NC(=O)c2ccnn2C)c(C)c1, the IC50 (second compound 0.1 µM) is reported as > 0.1 µM, the IC50 (second compound 0.316 µM) is reported as > 0.1 µM and the IC50 (second compound 1 µM) is reported as > 0.1 µM. The IC50 (second compound 3.16 µM) was > 0.1 µM, the IC50 (second compound 10 µM) was > 0.1 µM and the viability, T/C (second compound 0.1 µM, first compound 0.000316 µM) was 96.3%. For the same molecule, the viability, T/C (second compound 0.1 µM, first compound 0.001 µM) was 112%, the viability, T/C (second compound 0.1 µM, first compound 0.00316 µM) was 105% and the viability, T/C (second compound 0.1 µM, first compound 0.01 µM) was 101%. It also gave a viability, T/C [1] of 102%, a viability, T/C [2] of 103% and a viability, T/C (second compound 0.316 µM, first compound 0.000316 µM) of 108%. The viability, T/C (second compound 0.316 µM, first compound 0.001 µM) was 107%, the viability, T/C (second compound 0.316 µM, first compound 0.00316 µM) was 108% and the viability, T/C (second compound 0.316 µM, first compound 0.01 µM) was 106%. For the same molecule, the viability, T/C [7] was 101%, the viability, T/C [8] was 104% and the viability, T/C (second compound 1 µM, first compound 0.000316 µM) was 102%. It also gave a viability, T/C (second compound 1 µM, first compound 0.001 µM) of 102%, a viability, T/C (second compound 1 µM, first compound 0.00316 µM) of 109% and a viability, T/C (second compound 1 µM, first compound 0.01 µM) of 107%. The viability, T/C [13] was 102%, the viability, T/C [14] was 106% and the viability, T/C (second compound 3.16 µM, first compound 0.000316 µM) was 94.2%. For the same molecule, the viability, T/C (second compound 3.16 µM, first compound 0.001 µM) was 108%, the viability, T/C (second compound 3.16 µM, first compound 0.00316 µM) was 112% and the viability, T/C (second compound 3.16 µM, first compound 0.01 µM) was 98.2%. For the same molecule, the viability, T/C [19] was 93.5%, the viability, T/C [20] was 102% and the viability, T/C (second compound 10 µM, first compound 0.000316 µM) was 94.2%. It also gave a viability, T/C (second compound 10 µM, first compound 0.001 µM) of 102%, a viability, T/C (second compound 10 µM, first compound 0.00316 µM) of 96.7% and a viability, T/C (second compound 10 µM, first compound 0.01 µM) of 94.7%. For the same molecule, the viability, T/C [25] was 92.8% and the viability, T/C [26] was 92.6%.
For NS(=O)(=O)OCC1CC(n2ccc3c(NC4CCc5ccccc54)ncnc32)CC1O (stereo not given) + Cc1ccccc1N=Nc1ccc(NC(=O)c2ccnn2C)c(C)c1, the IC50 (second compound 0.1 µM) was > 10 µM, the IC50 (second compound 0.316 µM) was > 10 µM and the IC50 (second compound 1 µM) was > 10 µM. For the same molecule, the IC50 (second compound 3.16 µM) was > 10 µM, the IC50 (second compound 10 µM) was 2.07 µM and the viability, T/C [1] was 83.7%. The viability, T/C [2] was 84.2%, the viability, T/C [3] was 76.6% and the viability, T/C [4] was 55.9%. It also gave a viability, T/C [5] of 70.2%, a viability, T/C [6] of 70% and a viability, T/C [7] of 79.7%. For the same molecule, the viability, T/C [8] was 81.2%, the viability, T/C [9] was 81.5% and the viability, T/C [10] was 67.4%. The viability, T/C [11] was 74.6%, the viability, T/C [12] was 61% and the viability, T/C [13] was 90.1%. For the same molecule, the viability, T/C [14] was 87.6%, the viability, T/C [15] was 85.9% and the viability, T/C [16] was 60.6%. The viability, T/C [17] was 73.7%, the viability, T/C [18] was 60.8% and the viability, T/C [19] was 82.4%. For the same molecule, the viability, T/C [20] was 90.7%, the viability, T/C [21] was 81.6% and the viability, T/C [22] was 61.5%. It also gave a viability, T/C [23] of 60.9%, a viability, T/C [24] of 58.8% and a viability, T/C [25] of 83.8%. The viability, T/C [26] was 87.1%, the viability, T/C [27] was 68.2% and the viability, T/C [28] was 55.5%. It also gave a viability, T/C [29] of 46.7% and a viability, T/C [30] of 47.4%.
